Test results reported in US9241491B2, “Aerosol” (SABAN VENTURES PTY LIMITED, priority 2005, dated 2016).

Key:
[1] = Maximum peroxide concentration (peroxide density) in gas phase; assay type: physicochemical; details: for maximum achievable concentration for vapour systems: no evacuation; for Max. peroxide vapour concentration: initial 35% H2O2 solution
[2] = system: Spore strips; details: atmospheric pressure, below 80° C.; could not be achieved in less; cited from earlier work

OO [hydrogen peroxide vapour, hydrogen peroxide]
maximum achievable concentration for vapour systems ([1]; 0% humidity): 2.0 mg/L
maximum achievable concentration for vapour systems ([1]; 25° C., 40% RH): 0.9 mg/L
Max. peroxide vapour concentration ([1]; 20 ° C., 10% RH): 0.97 mg/L
Max. peroxide vapour concentration ([1]; 20 ° C., 20% RH): 0.85 mg/L
Max. peroxide vapour concentration ([1]; 20 ° C., 40% RH): 0.62 mg/L
Max. peroxide vapour concentration ([1]; 20 ° C., 80% RH): 0.14 mg/L
Max. peroxide vapour concentration ([1]; 40 ° C., 10% RH): 4.13 mg/L
Max. peroxide vapour concentration ([1]; 40 ° C., 20% RH): 2.59 mg/L
Max. peroxide vapour concentration ([1]; 40 ° C., 40% RH): 2.66 mg/L
Max. peroxide vapour concentration ([1]; 40 ° C., 80% RH): 0.63 mg/L
Max. peroxide vapour concentration ([1]; 60 ° C., 10% RH): 14.4 mg/L
Max. peroxide vapour concentration ([1]; 60 ° C., 20% RH): 12.60 mg/L
Max. peroxide vapour concentration ([1]; 60 ° C., 40% RH): 9.1 mg/L
Max. peroxide vapour concentration ([1]; 60 ° C., 80% RH): 2.31 mg/L
time to sterilization [2]: ≥ 6 h
